Measured values reported in PubChem BioAssay AID1918956 (Molecular Pharmacology Branch, DTP, NCI, 2023).

Test system: OVCAR-5 complex spheroids, viability
Assay: Anticancer human tumor OVCAR-5 cell line growth inhibition;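 note: spheroids exposed to agents for seven days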;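 for viability, T/C: 100% = DMSO vehicle control wells viability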
Conditions: for IC50: curve of first compound; for viability, T/C: stronger effect = lower value
How it was run: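 Multicellular complex spheroids of tumor cells with human endothelial cells (HUVEC) and mesenchymal stem cells; the LSD1 inhibitor iadademstat was combined with standard-of-care or investigational agents. Top concentration at or near clinical Cmax, half-log dilutions; final DMSO ≤0.25%.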

[1] = second compound 0.1 µM, first compound 0.00949 µM
[2] = second compound 0.1 µM, first compound 0.03 µM
[3] = second compound 0.1 µM, first compound 0.0949 µM
[4] = second compound 0.1 µM, first compound 0.3 µM
[5] = second compound 0.1 µM, first compound 0.949 µM
[6] = second compound 0.1 µM, first compound 3 µM
[7] = second compound 0.316 µM, first compound 0.00949 µM
[8] = second compound 0.316 µM, first compound 0.03 µM
[9] = second compound 0.316 µM, first compound 0.0949 µM
[10] = second compound 0.316 µM, first compound 0.3 µM
[11] = second compound 0.316 µM, first compound 0.949 µM
[12] = second compound 0.316 µM, first compound 3 µM
[13] = second compound 1 µM, first compound 0.00949 µM
[14] = second compound 1 µM, first compound 0.03 µM
[15] = second compound 1 µM, first compound 0.0949 µM
[16] = second compound 1 µM, first compound 0.3 µM
[17] = second compound 1 µM, first compound 0.949 µM
[18] = second compound 1 µM, first compound 3 µM
[19] = second compound 3.16 µM, first compound 0.00949 µM
[20] = second compound 3.16 µM, first compound 0.03 µM
[21] = second compound 3.16 µM, first compound 0.0949 µM
[22] = second compound 3.16 µM, first compound 0.3 µM
[23] = second compound 3.16 µM, first compound 0.949 µM
[24] = second compound 3.16 µM, first compound 3 µM
[25] = second compound 10 µM, first compound 0.00949 µM
[26] = second compound 10 µM, first compound 0.03 µM
[27] = second compound 10 µM, first compound 0.0949 µM
[28] = second compound 10 µM, first compound 0.3 µM
[29] = second compound 10 µM, first compound 0.949 µM
[30] = second compound 10 µM, first compound 3 µM

Row | Compound | IC50 (second compound 0.1 µM) [nM] | IC50 (second compound 0.316 µM) [nM] | IC50 (second compound 1 µM) [nM] | IC50 (second compound 3.16 µM) [nM] | IC50 (second compound 10 µM) [nM] | viability, T/C [1] [%] | viability, T/C [2] [%] | viability, T/C [3] [%] | viability, T/C [4] [%] | viability, T/C [5] [%] | viability, T/C [6] [%] | viability, T/C [7] [%] | viability, T/C [8] [%] | viability, T/C [9] [%] | viability, T/C [10] [%] | viability, T/C [11] [%] | viability, T/C [12] [%] | viability, T/C [13] [%] | viability, T/C [14] [%] | viability, T/C [15] [%] | other results
1 | NS(=O)(=O)OCC1CC(n2ccc3c(NC4CCc5ccccc54)ncnc32)CC1O (stereo not given) + NC1CC1c1ccc(-c2cccc(O)c2)cc1 | 186 | 178 | 145 | 156 | 83.9 | 145 | 133 | 84.2 | 25.6 | 8.27 | 5.16 | 152 | 149 | 79.6 | 26.9 | 22.2 | 4.93 | 117 | 145 | 72 | viability, T/C [16]: 25%; viability, T/C [17]: 7.9%; viability, T/C [18]: 4.8%; viability, T/C [19]: 141%; viability, T/C [20]: 126%; viability, T/C [21]: 69.7%; viability, T/C [22]: 23.8%; viability, T/C [23]: 7.78%; viability, T/C [24]: 4.11%; viability, T/C [25]: 131%; viability, T/C [26]: 101%; viability, T/C [27]: 42.7%; viability, T/C [28]: 16.2%; viability, T/C [29]: 6.76%; viability, T/C [30]: 4.61%
2 | Nc1ccccc1NC(=O)c1ccc(CNC(=O)OCc2cccnc2)cc1 + NC1CC1c1ccc(-c2cccc(O)c2)cc1 | 123 | 174 | 145 | 111 | 123 | 83.1 | 71.6 | 54.5 | 34.8 | 19.2 | 8.11 | 84.9 | 79.7 | 65.3 | 35.5 | 19.4 | 8.17 | 75.6 | 65.9 | 62.2 | viability, T/C [16]: 32.4%; viability, T/C [17]: 19.8%; viability, T/C [18]: 8.19%; viability, T/C [19]: 84%; viability, T/C [20]: 68.6%; viability, T/C [21]: 55.5%; viability, T/C [22]: 30.6%; viability, T/C [23]: 17.8%; viability, T/C [24]: 7.56%; viability, T/C [25]: 79.6%; viability, T/C [26]: 71.3%; viability, T/C [27]: 55.5%; viability, T/C [28]: 32.1%; viability, T/C [29]: 19.5%; viability, T/C [30]: 9.48%
3 | O=C(C=Cc1cccc(S(=O)(=O)Nc2ccccc2)c1)NO + NC1CC1c1ccc(-c2cccc(O)c2)cc1 | 118 | 124 | 81.9 | 74 | 78 | 90.3 | 78.2 | 54.6 | 28.7 | 11.8 | 2.54 | 89.4 | 82.5 | 55.3 | 27.7 | 13.8 | 2.81 | 82.7 | 69.6 | 46.5 | viability, T/C [16]: 25.3%; viability, T/C [17]: 9.19%; viability, T/C [18]: 2.22%; viability, T/C [19]: 82.9%; viability, T/C [20]: 67.5%; viability, T/C [21]: 44.3%; viability, T/C [22]: 25.9%; viability, T/C [23]: 10.2%; viability, T/C [24]: 2.06%; viability, T/C [25]: 87.9%; viability, T/C [26]: 73.9%; viability, T/C [27]: 40.2%; viability, T/C [28]: 28.6%; viability, T/C [29]: 11.8%; viability, T/C [30]: 2.64%
